Assay results as given in patent US20230339878A1, “SLC26A3 INHIBITORS AND USE THEREOF” (THE REGENTS OF THE UNIVERSITY OF CALIFORNIA, priority 2018, published 2023).
pIC50: −log10 of the molar value. “Also recorded” adds a separate entry of the source. Where two headings read alike, the source gives them in different places.

Assays:
murine slc26a3 = target: T1, murine slc26a3 (Mus musculus, UniProt Q9WVC8); test: slc26a3-mediated Cl-/I- exchange, YFP fluorescence quenching in FRT-YFP-slc26a3 cells; assay type: cell-based
T1 construct: host or cells: Fischer rat thyroid (FRT) cells expressing YFP, clonal line FRT-YFP-slc26a3
T1 sequence (Q9WVC8 1-757): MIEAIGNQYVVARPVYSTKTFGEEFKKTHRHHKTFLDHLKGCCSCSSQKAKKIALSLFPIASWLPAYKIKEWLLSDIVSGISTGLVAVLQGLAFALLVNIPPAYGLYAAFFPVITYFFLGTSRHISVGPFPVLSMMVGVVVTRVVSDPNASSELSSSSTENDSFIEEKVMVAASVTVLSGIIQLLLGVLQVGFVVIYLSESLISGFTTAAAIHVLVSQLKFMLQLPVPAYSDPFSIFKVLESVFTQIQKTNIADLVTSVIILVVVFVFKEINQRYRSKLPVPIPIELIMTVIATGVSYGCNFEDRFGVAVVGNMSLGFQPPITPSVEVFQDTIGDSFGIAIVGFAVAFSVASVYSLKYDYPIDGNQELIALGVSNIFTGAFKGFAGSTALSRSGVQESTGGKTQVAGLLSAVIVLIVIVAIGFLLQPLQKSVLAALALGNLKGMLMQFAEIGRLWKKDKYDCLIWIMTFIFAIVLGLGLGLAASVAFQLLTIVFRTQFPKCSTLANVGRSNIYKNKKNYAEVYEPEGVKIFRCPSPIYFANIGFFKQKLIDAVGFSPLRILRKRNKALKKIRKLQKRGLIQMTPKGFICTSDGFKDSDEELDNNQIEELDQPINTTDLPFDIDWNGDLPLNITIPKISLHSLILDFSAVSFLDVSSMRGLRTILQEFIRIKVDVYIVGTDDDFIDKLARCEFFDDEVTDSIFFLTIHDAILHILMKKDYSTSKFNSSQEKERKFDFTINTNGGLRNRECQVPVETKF
Method: High-throughput screening to identify slc26a3 inhibitors using FRT-YFP- slc26a3 cells was done with a semi-automated Beckman Coulter (Indianapolis, IN) platform with FLUOstar OMEGA plate readers (BMG Labtech, Cary, NC), essentially as described for discovery of pendrin inhibitors. Initial screening was done of ~50,000 drug-like synthetic small molecules (ChemDiv, San Diego, CA) at a concentration of 25 µM using a Cl^-/I^- exchange protocol to assay slc26a3 function. Following initial screening, compound analogs were purchased (ChemDiv, San Diego, CA) to generate structure-activity data.
For the screening, FRT-YFP-slc26a3 cells were plated in 96-well black-walled, clear-bottom tissue culture plates (Corning Life Sciences, Tewksbury, MA) at a density of 20,000 cells/well and cultured for 48 hours until confluent. For screening, cells were washed twice in PBS and incubated for 10 min in 100 µl PBS containing test compounds prior to assay of slc26a3 function. Assays were done using a FLUOstar OMEGA plate reader (BMG Labtech, Cary, NC) over 12 s with initial fluorescence recorded over 1 s prior to addition of 100 µl NaI-substituted PBS (137 mM NaCl replaced by 137 mM NaI) to drive Cl^-/I^- exchange. The initial rate of Cl^-/I^- exchange was determined from fluorescence intensity by single exponential regression. All plates contained wells with negative (1 % DMSO) and positive (350 µM niflumic acid) controls.
Screening was done using an FRT cell line stably expressing murine slc26a3 and a halide-sensitive yellow fluorescent protein (FRT-YFP- slc26a3 cells). FRT cells were used because of their low intrinsic permeability to anions that are transported by slc26a3, and because of their good adherence and rapid growth on uncoated plastic. As diagrammed in FIG. 1A, slc26a3-mediated transport was assayed from the kinetics of YFP fluorescence quenching in response to extracellular addition of I^- to drive Cl^-/I^- exchange; transport inhibition reduces the rate of fluorescence decrease.

[1] = test system: mouse distal colonic closed loops; test: Closed distal colonic loop fluid absorption in mice; assay type: in vivo; conditions: 10 µM intraluminal, 60 min
Method: Female CD1 mice (age 8-10 weeks) were given free access to Pedialyte (per liter: Na^+ 45 mEq, Cl^- 35 mEq, K^+ 20 mEq, dextrose 25 g; Abbott, Abbot Park, IL) but not solid food for 48 h before experiments. Mice were treated with 500 µL mineral oil once a day rectally (last dose 12 h before surgeries) during this period to evacuate the colon. Closed intestinal loops were isolated as described. Mice were anesthetized with isoflurane and body temperature was maintained during surgery at 36-38° C. using a heating pad. A small abdominal incision was made to expose the distal colon, and one closed distal colonic loop (length 1.5-2 cm) was isolated with sutures in each mouse. Loops were injected with 100 µL phosphate-buffered saline (PBS, pH: 7.4, in mM: 137 NaCl, 2.7 KCl, 8 Na2HPO4, 1.8 KH2PO4, 1 CaCl2, 0.5 MgCl2) without and with 10 µM Compound A1 and/or 10 µM tenapanor (MedChemExpress, Monmouth Junction, NJ). The abdominal incision was closed with sutures, and mice were allowed to recover from anesthesia. Colonic loops were removed at 0 and 60 min (in separate mice) and loop length and weight were measured to quantify fluid absorption. Luminal fluid was emptied with a syringe and pH was measured immediately using AB15 pH Meter (Thermo Fisher Scientific, South San Francisco, CA). In separate studies, mid-jejunal loops (length 2-3 cm, 3-4 loops per mouse) were isolated as described above, injected with 100 µL PBS without or with 10 µM Compound A1 and/or 10 µM tenapanor, and excised at 0 and 30 min to measure loop length and weight.
Closed intestinal loop studies in mice were done to study effects of Compound A1 on fluid absorption. […] Changes in luminal pH were also determined as a semi-quantitative measure of slc26a3-facilitated HCO3^- secretion / C1^- absorption, with slc26a3 inhibition predicted to reduce luminal fluid alkalinization. For these experiments, a phosphate-buffered solution (PBS) without HCO3^- / CO2 was used to avoid confounding effects of luminal carbonic anhydrases. […] Administration of the NHE3 (Na^+/H^+ exchanger 3) inhibitor tenapanor had no effect on weight/length ratio or luminal pH in distal colonic loops.

[2] = test system: oxalate nephropathy model in mice; test: Oxalate nephropathy model induced by high oxalate diet; assay type: in vivo
Method: To induce oxalate nephropathy, mice were fed with high oxalate (0.67%) and low calcium (<0.01%) diet as described (Am J Physiol Renal Physiol 310: F785-F795, 2016). […] Mice were started high oxalate diet at Day 0 and treated with Compound A1 (5 mg/kg) or vehicle by oral gavage twice daily starting at Day 0. At Day 14, urine was collected for 24 hours in metabolic cages and centrifuged to examine urine sediment, then mice were euthanized and kidneys were used for histological analysis.
The kidneys harvested at Day 14 were examined for kidney damage using H & E staining, and for crystal deposition using polarized light microscopy.
Similar experiments in oxalate nephropathy model were performed using DRAinh-A270. For these experiments mice had 3-hour urine collections at Day 0, 7 and 14. High oxalate diet was started on Day 0 after initial urine collection and mice were given DRAinh-A270 or vehicle intraperitoneally twice daily for 14 days.

[3] = 5 mg/kg oral twice daily, Day 14

Compound	reversibility of inhibition (murine slc26a3; 1 µM for 10 min, then washed three times)	pIC50 (murine slc26a3; selected class A analogs, Table 1, Cl-/I- exchange, read-out: IC50)	pIC50 (murine slc26a3; summary statement, read-out: IC50 for inhibition of SLC26A3-mediated anion exchange)	loop weight/length ratio (fluid absorption), distal colonic loops [1]	luminal pH, distal colonic loops [1]	insoluble urine sediment [2, 3]	kidney damage, H & E staining [2, 3]	renal crystal deposition, polarized light microscopy [2, 3]	potency compared to Compound A1 (DRAinh-A250) (murine slc26a3; FIG. 9)	pIC50 (murine slc26a3; FIG. 9 concentration-inhibition curves, read-out: IC50 for slc26a3-mediated Cl-/I- exchange)	pIC50 (murine slc26a3; representative Class A compounds, Table 3, read-out: IC50)	development of renal failure ([2]; intraperitoneally twice daily for 14 days)	body weight change compared to Day 0 ([2]; intraperitoneally twice daily for 14 days, Day 7 and Day 14)	3-hour urine oxalate / creatinine ratio ([2]; intraperitoneally twice daily, Day 7 vs Day 0)	serum creatinine ([2]; intraperitoneally twice daily, Day 14)
Cc1c(CC(=O)O)c(=O)oc2c(C)c(OCc3cccc(Br)c3)ccc12 [Compound A1]	full reversibility; also recorded: fully and reversibly inhibited	6.82	6.70 to 7.00	completely prevented the reduction in loop weight/length ratio; also recorded: blocked fluid absorption in closed colonic loops; also recorded: inhibits intestinal fluid absorption in mouse distal colon	reduced alkalinization of luminal fluid	greatly reduced; also recorded: greatly reduces urine sediment	prevention of kidney damage; also recorded: prevents renal damage	prevention of crystal deposition; also recorded: prevents renal crystal deposition	–	–	–	–	–	–	–
Cc1c(CC(=O)O)c(=O)oc2c(C)c(OCc3cccc(I)c3)ccc12 [DRAinh-A270]	–	–	–	–	–	–	–	–	four-fold improved potency	~7.30	7.40	prevents development of renal failure; also recorded: prevents weight loss, hyperoxaluria and renal failure	maintained their weight better; also recorded: prevents weight loss, hyperoxaluria and renal failure	largely prevented development of hyperoxaluria; also recorded: prevents weight loss, hyperoxaluria and renal failure	normal serum creatinine
